Results published in patent US11584709B2, “Multitarget drug for treating diseases in mammals” (“PHARMENTERPRISES EURASIA” LIMITED LIABILITY COMPANY, priority 2017, dated 2023).

Tests used:
[1] = target: T1, bradykinin receptors B1 (BRDKB1) (Homo sapiens, UniProt P46663); experiment: Activity of bradykinin receptor BRDKB1, intracellular calcium, CHO cells; format: cell-based; conditions: antagonist, LysdesArg9-BK agonist (3 nM)
T1 construct: expressed in transfected cells; host or cells: CHO cells
T1 sequence (P46663 1-353): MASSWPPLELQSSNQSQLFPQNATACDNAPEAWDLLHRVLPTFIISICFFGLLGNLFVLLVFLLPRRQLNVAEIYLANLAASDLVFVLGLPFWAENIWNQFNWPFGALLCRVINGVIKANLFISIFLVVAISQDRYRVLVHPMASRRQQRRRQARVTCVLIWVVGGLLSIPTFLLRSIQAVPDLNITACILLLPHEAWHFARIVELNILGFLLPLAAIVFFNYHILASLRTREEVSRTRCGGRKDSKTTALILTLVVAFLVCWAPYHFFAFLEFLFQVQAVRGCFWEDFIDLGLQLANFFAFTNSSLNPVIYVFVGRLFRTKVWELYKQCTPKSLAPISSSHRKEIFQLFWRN
Experimental: Compound 1 was dissolved in DMSO to a concentration of 100 mM; then a stock solution was serially diluted with DMSO. The maximum starting concentration of the substance is 100 μM. The effect was determined at 5 concentrations of the tested compounds, each concentration was studied twice. CHO cells expressing bradykinin receptors B1 were used in the experiment, these cells, after preincubation with a LysdesArg9-BK agonist (3 nM), were incubated with the test compound. The activity of receptors was determined according to the intracellular calcium concentration by fluorescence spectroscopy (Eur J Pharmacol. 2000 Mar. 24; 392(1-2):1-9).

[2] = target: T2, prokineticin receptor type 1 (PK1) (Homo sapiens, UniProt Q8TCW9); experiment: Activity of prokineticin receptors type 1 (PK1), intracellular calcium, HEK-293 cells; format: cell-based; conditions: antagonist, PK1 agonist (3 nM)
T2 construct: expressed in transfected cells; host or cells: HEK-293 cells
T2 sequence (Q8TCW9 whole entry): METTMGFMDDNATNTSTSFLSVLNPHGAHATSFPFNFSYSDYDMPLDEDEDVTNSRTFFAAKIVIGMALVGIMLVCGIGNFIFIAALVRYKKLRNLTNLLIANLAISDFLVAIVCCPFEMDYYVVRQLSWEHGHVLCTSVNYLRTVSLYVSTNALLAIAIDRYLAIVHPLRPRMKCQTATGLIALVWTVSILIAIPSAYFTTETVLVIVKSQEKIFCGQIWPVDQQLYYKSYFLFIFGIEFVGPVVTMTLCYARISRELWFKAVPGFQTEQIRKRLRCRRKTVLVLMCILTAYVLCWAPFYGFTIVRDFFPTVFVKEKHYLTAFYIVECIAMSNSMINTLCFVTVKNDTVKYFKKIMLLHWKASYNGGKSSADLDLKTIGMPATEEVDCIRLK
Experimental: Compound 1 was dissolved in DMSO to a concentration of 100 mM; then a stock solution was serially diluted with DMSO. The maximum starting concentration of the substance is 100 μM. The effect was determined at 5 concentrations of the tested compounds, each concentration was studied twice. HEK-293 cells expressing prokineticin receptors PK1 were used in the experiment, these cells, after preincubation with a PK1 agonist (3 nM), were incubated with the test compound. The activity of receptors was determined according to the intracellular calcium concentration by the fluorescence spectroscopy (Mol Pharmacol. 2005 June; 67(6):2070-6).

NF-kB signaling pathway = experiment: Activity of NF-kB signaling pathway, Jurkat lacZ reporter; format: cell-based; conditions: Homo sapiens; inhibitor; Jurkat T lymphocytes, β-galactosidase reporter, substrate FDG
[3] = test system: imiquimod-induced ear psoriasis; experiment: Mouse model of imiquimod-induced ear psoriasis; format: in vivo, female balb/c mice; conditions: for The gain in the thickness of the right (affected) ear relatively day 0: 0.3% ointment, M ± m, n = 10
Experimental: Psoriasis was simulated in female balb/c mice by applying Aldar cream (5% imiquimod) on the inner side of the right ear daily 1 time per day for 10 days (J Immunol. 2009 May 1; 182(9):5836-45). Vaseline was applied to intact animals: 20 mg on the right ear.
The assessment of the development of pathology was performed on 2nd, 4th, 6th, 8th and 10th day before the next application of Aldar cream by measuring the thickness of the left and right ears.

[4] = test system: imiquimod-induced psoriasis on the back; experiment: Mouse model of imiquimod-induced psoriasis on the back; format: in vivo; conditions: for The gain of the thickness of the back skin to the thickness before the start of the study: 0.3% ointment, M ± m, n = 10
Experimental: Psoriasis was simulated in female balb/c mice by applying Aldar cream (5% imiquimod) on a previously shaved skin back area of 3×4 cm daily 1 time per day for 15 days (J Immunol. 2009 May 1; 182(9):5836-45). Intact animals were applied with vaseline: 120 mg per the shaved back area.
The assessment of the development of pathology was performed on the 10th, 12th, 13th and 15th day before the next application of Aldar cream according to the index: the thickness of the skin fold on the back. The thickness of the skin fold on the back was measured with a Digimatic MK-25 micrometer (Mitutoyo, Japan).

model of Crohn's disease = experiment: Mouse model of Crohn's disease (TNBS); format: in vivo, male balb/c mice
Experimental: The study was performed on male balb/c mice. Animals, which starved for 24 hours, were injected with 150 μl/mouse of TNBS solution in 50% ethanol into the rectal hole of the mouse to the depth of 4 cm using a 3.5 F catheter. Next, the mice were turned upside down and held for 60 seconds. 150 μl of the 50% ethanol solution was injected into the healthy control (intact animals). The study lasted 7 days. The development of pathology was assessed by the death of animals.

[5] = Stability in blood plasma, mouse; format: in vitro ADME; conditions: for Content, % from the initial, Mean (n = 2): mouse blood plasma, 1 μM, 37° C.
Experimental: (§1) Compound 1 at a concentration of 1 μM was incubated for 24 hours in the blood plasma of human and various animal species (rats, mice, guinea pigs, rabbits, horses, dogs, bull, pygmy hogs) at 37° C. Aliquots were taken at time points of 0, 0.25, 1, 2, 4, 8 and 24 hours. In the case of blood plasma of rabbits and monkeys, Compound 1 was incubated for 4 hours, and aliquots were taken at time points 0, 0.25, 1, 4. After the protein precipitation with acetonitrile, samples were analyzed by HPLC-MS/MS to determine the concentration of Compound 1. Verapamil was used as a stable control.

[6] = Stability in blood plasma, rat; format: in vitro ADME; conditions: for Content, % from the initial, Mean (n = 2): rat blood plasma, 1 μM, 37° C.
Experimental: as §1

[7] = Pharmacokinetics in blood plasma after oral administration; format: in vivo; conditions: rats, 3 mg/kg, 24 hours sampling, HPLC-MS/MS, limit of quantitation 1 ng/ml
Experimental: To confirm low systemic availability of Compound 1, the study pharmacokinetics and bioavailability of Compound 1 after oral administration to rats in a dose of 3 mg/kg was conducted. Sampling of blood from animals was performed at specified time points for 24 hours after the drug administration. The content of Compound 1 in plasma samples was analyzed by HPLC-MS/MS, the limit of quantitation was 1 ng/ml.

Work on `O=C(Cc1ccc(O)cc1)N[C@@H](Cc1ccccc1)C(=O)OCc1ccccc1` [Compound 1, benzyl (2S)-2-[2-(4-hydroxyphenyl)acetamido]-3-phenylpropanoate] yielded an IC50 [1] of 3.7 µM, an IC50 [2] of 5.7 µM and an IC50 (NF-kB signaling pathway) of 9.9 µM. For the same compound, the “The gain in the thickness of the right (affected) ear relatively day 0” value (from here on “The gain … (affected) ear relatively day 0”) ([3]; day 2) was 14.1%, the “The gain … (affected) ear relatively day 0” value ([3]; day 4) was 22.1% and the “The gain … (affected) ear relatively day 0” value ([3]; day 6) was 28.0%. For the same compound, the “The gain … (affected) ear relatively day 0” value ([3]; day 8) was 19.4%, the “The gain … (affected) ear relatively day 0” value ([3]; day 10) was 7.9% and the “reduction of the gain in the thickness of the right (affected) ear (in words)” value ([3]; summary of table 1) was “to the level of intact animals”. The “The gain of the thickness of the back skin to the thickness before the start of the study” value (“The gain of the thickness … of the study” for short) ([4]; day 10) was 23.1%, the “The gain of the thickness … of the study” value ([4]; day 12) was 19.9% and the “The gain of the thickness … of the study” value ([4]; day 13) was 20.5%. The “The gain of the thickness … of the study” value ([4]; day 15) was 22.4%, the “reduction of the gain of the thickness of the skin fold of the affected skin area” value ([4]; summary of table 2) was 2 times and the “The portion of dead animals” value (model of Crohn's disease; 50 mg/kg, 1 time per day, TNBS, 7 days, 10 animals) was 30%. For the same compound, the “decrease of the death of animals” value (model of Crohn's disease; summary of Table 4) was “more than 2 times”, the “hydrolysis in the blood plasma (in words)” value ([5]; blood plasma of mice, after 15 minutes) was “almost completely hydrolyzed” and the “Content, % from the initial, Mean (n = 2)” value (“Content, % from the initial” for short) ([5]; 0 hour) was 100%. For the same compound, the “Content, % from the initial” value ([5]; 0.25 hour) was 0.00%, the “Content, % from the initial” value ([5]; 1 hour) was 0.00% and the “Content, % from the initial” value ([5]; 2 hour) was 0.00%. The “Content, % from the initial” value ([5]; 4 hour) was 0.00%, the “Content, % from the initial” value ([5]; 8 hour) was 0.00% and the “Content, % from the initial” value ([5]; 24 hour) was 0.00%. The “hydrolysis in the blood plasma (in words)” value ([6]; blood plasma of rats, after 15 minutes) was “almost completely hydrolyzed”, the “Content, % from the initial” value ([6]; 0 hour) was 100% and the “Content, % from the initial” value ([6]; 0.25 hour) was 0.00%. For the same compound, the “Content, % from the initial” value ([6]; 1 hour) was 0.00%, the “Content, % from the initial” value ([6]; 2 hour) was 0.00% and the “Content, % from the initial” value ([6]; 4 hour) was 0.00%. The “Content, % from the initial” value ([6]; 8 hour) was 0.00%, the “Content, % from the initial” value ([6]; 24 hour) was 0.00% and the “content in blood plasma after oral administration” value [7] was “not detected”.
